Measurements as given in PubChem BioAssay (NCI).
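Assay format: 96-well plates, 48-hour exposure. Definition used: TGI = concentration required for complete inhibition of growth.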

Assays:
Assay in all cases: growth of human tumour cells (NCI), 48 h
[1] = system: HT29 colon
[2] = system: ACHN renal
[3] = system: 786-0 renal
[4] = system: HCC-2998 colon
[5] = system: SR leukemia
[6] = system: SNB-75 CNS
[7] = system: HCT-116 colon
[8] = system: SK-MEL-28 melanoma
[9] = system: OVCAR-3 ovarian
[10] = system: EKVX NSCLC
[11] = system: HCT-15 colon
[12] = system: OVCAR-5 ovarian
[13] = system: CAKI-1 renal
[14] = system: COLO 205 colon
[15] = system: BT-549 breast
[16] = system: SW-620 colon
[17] = system: SNB-19 CNS
[18] = system: NCI/ADR-RES ovarian
[19] = system: SK-MEL-2 melanoma
[20] = system: UACC-257 melanoma
[21] = system: NCI-H226 lung
[22] = system: CCRF-CEM leukemia
[23] = system: T-47D breast
[24] = system: UACC-62 melanoma
[25] = system: SF-268 CNS
[26] = system: K-562 leukemia
[27] = system: HL-60(TB) leukemia
[28] = system: RXF 393 renal
[29] = system: OVCAR-4 ovarian
[30] = system: A498 renal
[31] = system: MALME-3M melanoma
[32] = system: IGROV1 ovarian
[33] = system: NCI-H460 lung
[34] = system: U251 CNS
[35] = system: MDA-MB-231 breast
[36] = system: OVCAR-8 ovarian
[37] = system: RPMI-8226 leukemia
[38] = system: MDA-MB-435
[39] = system: SK-OV-3 ovarian
[40] = system: MCF7 breast
[41] = system: KM12 colon
[42] = system: TK-10 renal
[43] = system: M14 melanoma
[44] = system: SK-MEL-5 melanoma
[45] = system: LOX IMVI melanoma
[46] = system: HOP-62 NSCLC
[47] = system: NCI-H522 lung
[48] = system: PC-3 prostate
[49] = system: A549 NSCLC
[50] = system: NCI-H23 lung
[51] = system: SF-295 CNS
[52] = system: MDA-N
[53] = system: UO-31 renal
[54] = system: DU-145 prostate
[55] = system: SN12C renal
[56] = system: HOP-92 NSCLC
[57] = system: HS 578T breast

Measured: TGI

Cc1cc(CN2CCCCC2)c(O)c(CN2CCCCC2)c1
> 100 µM: all assays above
